Measurements taken from patent US20020137929A1, “1 - (3-heterocyclylphenyl) isothiourea, -isourea, -guanidine and -amidine herbicidal agents” (Intellectual Property Department, BASF Aktiengesellschaft, priority 1998, published 2002).

What was measured:
CYPIR (Rice Flatsedge) = experiment: Preemergence weed control under flooded paddy conditions; type: in vivo, Cyperus iria; settings: rated 3-4 weeks after treatment
Outline: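 Silt loam, seeds in top 0.5 cm; flood held 1.5-3 cm; test cpd as acetone/water 50/50 into flood water, ~0.0313-0.500 kg/ha a.i.; greenhouse 3-4 wk; visual 0-9 score vs control.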

GALAP (Galium) [1] = experiment: Preemergence herbicidal evaluation; type: in vivo, Galium aparine; settings: rated 4-5 weeks after treatment
Outline: (§1)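 Seeds were planted in potting soil in cups, then sprayed preemergence with the test compound in aqueous acetone at about 0.0156 to 0.500 kg per hectare. Cups were kept under greenhouse conditions and visually rated 4–5 weeks after treatment on a 0–9 scale against an untreated control.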

[2] = test system: CHEAL (Lambsquarters, Common); experiment: Postemergence herbicidal evaluation; type: in vivo, Chenopodium album; settings: postemergence
Outline: (§2)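 Herbicidal effect was judged by eye on a 0–9 scale covering stand, vigor, deformity, size and chlorosis, compared with controls, four to five weeks after seedlings about two weeks old were sprayed (40 psi, ~0.0156–0.500 kg/ha).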

CYPSE (Flatsedge) [3] = experiment: Preemergence weed control under flooded paddy conditions; type: in vivo, Cyperus serotinus; settings: rated 3-4 weeks after treatment
Outline: (§3)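 Seeds or propagules sown in silt loam kept flooded 1.5-3 cm; compounds in 50/50 acetone/water pipetted into flood water at about 0.0313 to 0.500 kg/ha. Greenhouse; visual 0-9 rating versus untreated control 3-4 weeks after treatment.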

SETVI (Foxtail, Green) = experiment: Postemergence herbicidal evaluation; type: in vivo, Setaria viridis; settings: postemergence
Outline: as §2

CASOB (Sicklepod) [4] = experiment: Postemergence herbicidal evaluation; type: in vivo, Cassia obtusifolia; settings: postemergence
Outline: as §2

GALAP (Galium) [5] = experiment: Postemergence herbicidal evaluation; type: in vivo, Galium aparine; settings: postemergence
Outline: as §2

CYPSE (Flatsedge) [6] = experiment: Postemergence weed control under flooded paddy conditions; type: in vivo, Cyperus serotinus; settings: postemergence weeds, 3-4 weeks after treatment
Outline: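 With weeds 3 to 5 cm tall and rice at the 1.5 to 2.5 leaf stage, containers were flooded and water held 1.5 to 3 cm above soil. Compounds in 50/50 v/v aqueous/acetone went into the flood water at about 0.0313 to 0.500 kg/ha a.i. Effects were visually rated 0–9 against controls after three to four weeks in the greenhouse.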

AMBEL (Ragweed, Common) = experiment: Postemergence herbicidal evaluation; type: in vivo, Ambrosia artemisifolia; settings: postemergence
Outline: as §2

CASOB (Sicklepod) [7] = experiment: Preemergence herbicidal evaluation; type: in vivo, Cassia obtusifolia; settings: rated 4-5 weeks after treatment
Outline: as §1

[8] = test system: GLXMAW (Soybean, Williams); experiment: Postemergence herbicidal evaluation; type: in vivo, Glycine max, (L.) Merr. cv Williams; settings: postemergence
Outline: as §2

ECHCG (Barnyardgrass) = experiment: Postemergence herbicidal evaluation; type: in vivo, Echinochloa crus-galli; settings: postemergence
Outline: as §2

ZEAMX (Corn, Field) = experiment: Preemergence herbicidal evaluation; type: in vivo, Zea mays; settings: rated 4-5 weeks after treatment
Outline: as §1

ORYSAT (Rice, Tebonnet) = experiment: Postemergence herbicidal evaluation; type: in vivo, Oryza sativa, (L.) Tebonnet; settings: postemergence
Outline: as §2

[9] = test system: SAGPY (Arrowhead (Pygmaea)); experiment: Preemergence weed control under flooded paddy conditions; type: in vivo, Sagittaria pygmaea; settings: rated 3-4 weeks after treatment
Outline: as §3

CCOC(=O)CN1C(=O)C(CC)SC1=Nc1cc(-n2c(=O)cc(C(F)(F)F)n(C)c2=O)c(F)cc1Cl (stereo not drawn) [Compound 13, Ethyl 2-{{2-chloro-5-[3,6-dihydro-3-methyl-2,6-dioxo-4-(trifluoromethyl)-1(2H)-pyrimidinyl]-4-fluorophenyl}imino}-5-ethyl-4-oxo-3-thiazolidineacetate]
Herbicidal rating CYPIR (CYPIR (Rice Flatsedge); 0.0156 kg/ha): 0.0 | Herbicidal rating CYPIR (CYPIR (Rice Flatsedge); 0.0313 kg/ha): 0.0 | Herbicidal rating CYPIR (CYPIR (Rice Flatsedge); 0.0625 kg/ha): 0.0 | Herbicidal rating CYPIR (CYPIR (Rice Flatsedge); 0.1250 kg/ha): 0.5 | Herbicidal rating CYPIR (CYPIR (Rice Flatsedge); 0.2500 kg/ha): 1.0 | GALAP preemergence herbicidal rating (GALAP (Galium) [1]; rate 0.0156 kg/ha): 0.0 | GALAP preemergence herbicidal rating (GALAP (Galium) [1]; rate 0.0313 kg/ha): 0.0 | GALAP preemergence herbicidal rating (GALAP (Galium) [1]; rate 0.0625 kg/ha): 0.0 | GALAP preemergence herbicidal rating (GALAP (Galium) [1]; rate 0.1250 kg/ha): 0.0 | GALAP preemergence herbicidal rating (GALAP (Galium) [1]; rate 0.2500 kg/ha): 0.0 | CHEAL herbicidal rating ([2]; rate 0.0156 kg/ha): 9.0 | CHEAL herbicidal rating ([2]; rate 0.0313 kg/ha): 8.0 | CHEAL herbicidal rating ([2]; rate 0.0625 kg/ha): 9.0 | CHEAL herbicidal rating ([2]; rate 0.1250 kg/ha): 9.0 | Herbicidal rating CYPSE (CYPSE (Flatsedge) [3]; 0.0156 kg/ha): 0.0 | Herbicidal rating CYPSE (CYPSE (Flatsedge) [3]; 0.0313 kg/ha): 0.0 | Herbicidal rating CYPSE (CYPSE (Flatsedge) [3]; 0.0625 kg/ha): 0.0 | Herbicidal rating CYPSE (CYPSE (Flatsedge) [3]; 0.1250 kg/ha): 0.0 | Herbicidal rating CYPSE (CYPSE (Flatsedge) [3]; 0.2500 kg/ha): 0.0 | SETVI herbicidal rating (SETVI (Foxtail, Green); rate 0.0156 kg/ha): 0.0 | SETVI herbicidal rating (SETVI (Foxtail, Green); rate 0.0313 kg/ha): 4.0 | SETVI herbicidal rating (SETVI (Foxtail, Green); rate 0.0625 kg/ha): 4.0 | SETVI herbicidal rating (SETVI (Foxtail, Green); rate 0.1250 kg/ha): 9.0 | CASOB herbicidal rating (CASOB (Sicklepod) [4]; rate 0.0156 kg/ha): 0.0 | CASOB herbicidal rating (CASOB (Sicklepod) [4]; rate 0.0313 kg/ha): 0.0 | CASOB herbicidal rating (CASOB (Sicklepod) [4]; rate 0.0625 kg/ha): 3.0 | CASOB herbicidal rating (CASOB (Sicklepod) [4]; rate 0.1250 kg/ha): 3.0 | GALAP herbicidal rating (GALAP (Galium) [5]; rate 0.0156 kg/ha): 3.0 | GALAP herbicidal rating (GALAP (Galium) [5]; rate 0.0313 kg/ha): 3.0 | GALAP herbicidal rating (GALAP (Galium) [5]; rate 0.0625 kg/ha): 5.0 | GALAP herbicidal rating (GALAP (Galium) [5]; rate 0.1250 kg/ha): 5.0 | Herbicidal rating CYPSE (CYPSE (Flatsedge) [6]; rate 0.0313 kg/ha): 0.0 | Herbicidal rating CYPSE (CYPSE (Flatsedge) [6]; rate 0.0625 kg/ha): 0.0 | Herbicidal rating CYPSE (CYPSE (Flatsedge) [6]; rate 0.1250 kg/ha): 0.0 | Herbicidal rating CYPSE (CYPSE (Flatsedge) [6]; rate 0.2500 kg/ha): 0.0 | AMBEL herbicidal rating (AMBEL (Ragweed, Common); rate 0.0156 kg/ha): 7.0 | AMBEL herbicidal rating (AMBEL (Ragweed, Common); rate 0.0313 kg/ha): 9.0 | AMBEL herbicidal rating (AMBEL (Ragweed, Common); rate 0.0625 kg/ha): 9.0 | AMBEL herbicidal rating (AMBEL (Ragweed, Common); rate 0.1250 kg/ha): 9.0 | CASOB preemergence herbicidal rating (CASOB (Sicklepod) [7]; rate 0.0156 kg/ha): 0.0 | CASOB preemergence herbicidal rating (CASOB (Sicklepod) [7]; rate 0.0313 kg/ha): 0.0 | CASOB preemergence herbicidal rating (CASOB (Sicklepod) [7]; rate 0.0625 kg/ha): 0.0 | CASOB preemergence herbicidal rating (CASOB (Sicklepod) [7]; rate 0.1250 kg/ha): 1.0 | CASOB preemergence herbicidal rating (CASOB (Sicklepod) [7]; rate 0.2500 kg/ha): 3.0 | GLXMAW herbicidal rating ([8]; rate 0.0156 kg/ha): 5.0 | GLXMAW herbicidal rating ([8]; rate 0.0313 kg/ha): 5.5 | GLXMAW herbicidal rating ([8]; rate 0.0625 kg/ha): 5.5 | GLXMAW herbicidal rating ([8]; rate 0.1250 kg/ha): 7.5 | ECHCG herbicidal rating (ECHCG (Barnyardgrass); rate 0.0156 kg/ha): 2.0 | ECHCG herbicidal rating (ECHCG (Barnyardgrass); rate 0.0313 kg/ha): 2.0 | ECHCG herbicidal rating (ECHCG (Barnyardgrass); rate 0.0625 kg/ha): 3.0 | ECHCG herbicidal rating (ECHCG (Barnyardgrass); rate 0.1250 kg/ha): 7.0 | ZEAMX preemergence herbicidal rating (ZEAMX (Corn, Field); rate 0.0156 kg/ha): 0.0 | ZEAMX preemergence herbicidal rating (ZEAMX (Corn, Field); rate 0.0313 kg/ha): 2.0 | ZEAMX preemergence herbicidal rating (ZEAMX (Corn, Field); rate 0.0625 kg/ha): 4.0 | ZEAMX preemergence herbicidal rating (ZEAMX (Corn, Field); rate 0.1250 kg/ha): 5.0 | ZEAMX preemergence herbicidal rating (ZEAMX (Corn, Field); rate 0.2500 kg/ha): 7.0 | ORYSAT herbicidal rating (ORYSAT (Rice, Tebonnet); rate 0.0156 kg/ha): 1.5 | ORYSAT herbicidal rating (ORYSAT (Rice, Tebonnet); rate 0.0313 kg/ha): 2.5 | ORYSAT herbicidal rating (ORYSAT (Rice, Tebonnet); rate 0.0625 kg/ha): 2.5 | ORYSAT herbicidal rating (ORYSAT (Rice, Tebonnet); rate 0.1250 kg/ha): 3.0 | Herbicidal rating SAGPY ([9]; 0.0156 kg/ha): 0.0 | Herbicidal rating SAGPY ([9]; 0.0313 kg/ha): 0.0 | Herbicidal rating SAGPY ([9]; 0.0625 kg/ha): 0.0 | Herbicidal rating SAGPY ([9]; 0.1250 kg/ha): 0.0 | Herbicidal rating SAGPY ([9]; 0.2500 kg/ha): 0.0
